From patent US7081448B2, “Benzyllactobionamides as inhibitors of smooth muscle cell proliferation” (Wyeth, priority 1998, dated 2006)

System: Porcine Smooth Muscle Cell
Assay: Effects of compounds on cell proliferation using 3H thymidine incorporation
Format: cell-based
Settings: porcine smooth muscle cells, serum/growth factor stimulated; for IC50: 24–36 h, read-out: Porcine Smooth Muscle Cell Antiproliferation IC50; for Porcine Smooth Muscle Cell Antiproliferation, percent inhibition: @ 500 μM
Procedure: The compounds of this invention are useful as antiproliferative agents. The following procedures show the evaluation of representative compounds of this invention in standard pharmacological test procedure which measured ability of the evaluated compound to inhibit smooth muscle cell proliferation
Effects of Compounds on Cell Proliferation Using ^3H Thymidine Incorporation
Human and porcine smooth muscle cells were tested in early passage (generally passage 3–7) at sub-confluent conditions. Cultures were grown in 16 mm (24 well) multi-well culture dishes in medium 199 supplemented with 10% fetal bovine serum and 2% antibiotic/antimycotic. At sub-confluence, the cells were placed in a defined serum free medium (AIM-V; Gibco) for 24–48 h prior to initiating the experimental protocol. […] Compounds were added to each well at 50 fold dilution (20 μL/well) and the plates were incubated for 24–36 h at 37° C. in 5% CO2. Compounds were initially dissolved in 50% ethanol and serially diluted into media. Compounds were routinely evaluated at concentrations from 1 to 100 μM. As a control, grade II porcine intestinal mucosal heparin (sodium salt) was routinely evaluated in all cell preparations at concentrations from 0.1 to 100 μg/mL. At the completion of the test procedure, plates were placed on ice, washed three times with ice cold phosphate buffered saline (PBS) and incubated in ice cold 10% trichloroacetic acid (TCA) got 30 min to remove acid soluble proteins. Solution was transferred to scintillation vials containing 0.4 N HCl (500 μL/vial to neutralize NaOH) and each well was rinsed two times with water (500 μL) for a total volume of 2 mL/vial. Data was obtained, in triplicate, for both control and experimental samples. Control (100%) data was obtained from maximally stimulated cells, as the result of growth factor or serum stimulation. Experimental data was obtained from cells maximally stimulated with growth factor or serum and treated with compound. Data are expressed as an IC50 or percent inhibition in Table I below.

Compound	IC50 [µM]	Porcine Smooth Muscle Cell Antiproliferation, percent inhibition [% @ 500]
CC(=O)OC[C@H]1O[C@@H](O[C@@H]([C@H](OC(C)=O)[C@@H](OC(C)=O)C(=O)NCc2ccccc2)[C@@H](COC(C)=O)OC(C)=O)[C@H](OC(C)=O)[C@@H](OC(C)=O)[C@H]1OC(C)=O [Example 1, N-Benzyl-octa-O-acetyl-lactobionamide]	118	
N-[3-(Acetylamino)-benzyl]-octa-O-sulfo-lactobionamide Octasodium Salt [Example 7]	122	
CC(=O)OC[C@H]1O[C@@H](O[C@@H]([C@H](OC(C)=O)[C@@H](OC(C)=O)C(=O)NCc2cccc(N)c2)[C@@H](COC(C)=O)OC(C)=O)[C@H](OC(C)=O)[C@@H](OC(C)=O)[C@H]1OC(C)=O [Example 5, N-(3-Amino-benzyl)-octa-O-acetyl-lactobionamide]		12
N-Benzyl-octa-O-sulfo-lactobionamide Octasodium Salt [Example 2]		45
CC(=O)OC[C@H]1O[C@@H](O[C@@H]([C@H](OC(C)=O)[C@@H](OC(C)=O)C(=O)NCc2ccc(N)cc2)[C@@H](COC(C)=O)OC(C)=O)[C@H](OC(C)=O)[C@@H](OC(C)=O)[C@H]1OC(C)=O [Example 4, N-(4-Amino-benzyl)-octa-O-acetyl-lactobionamide]		30
